From US20230242513A1, “NOVEL HETEROARYL-SUBSTITUTED PYRAZINE DERIVATIVES AS PESTICIDES” (Bayer Animal Health GmbH, priority 2020, published 2023) come the findings set out here.

What all share (type): in vivo
Test [1] deals with Rhipicephalus (Boophilus) microplus larvae (strain Parkhurst, resistant against synthetic pyrethroids). Put plainly: Rhipicephalus (Boophilus) microplus in-vitro contact test, larval cattle tick. The settings on record: application rate 5 μg/cm^2 (=500 g/ha); after 48 hours. Here is the method: Rhipicephalus (Boophilus) microplus—In-Vitro Contact Tests Larval Cattle Tick (Strain Parkhurst, Resistant Against Synthetic Pyrethroids)
9 mg compound is solved in 1 mL acetone and diluted with acetone to the desired concentration. 250 μL of the test solution is filled in 25 mL glass test tubes and homogeneously distributed on the inner walls by rotation and tilting on a shaking device (2 h at 30 rpm). With a compound concentration of 900 ppm, an inner surface of 44.7 cm^2 and a homogeneous distribution, a dose of […] is achieved.
After the solvent has evaporated, each test tube is filled with 20-50 cattle tick larvae (Rhipicephalus microplus), closed with a perforated lid and incubated in a horizontal position at 85% relative humidity and 27° C. in an incubator. After 48 hours efficacy is determined. The larvae are patted on the ground of the tubes and negative geotactic behavior is recorded.
An efficacy of 100% means all larvae are dead or moribund; 0% means no larvae are dead or moribund.

Test [2] deals with Spodoptera frugiperda (fall armyworm larvae). Put plainly: Spodoptera frugiperda spray test. The settings on record: in Zea mays, 168 h. Here is the method: Spodoptera frugiperda—Spray Test
Solvent: 78.0 parts by weight acetone • 1.5 parts by weight dimethylformamide
(§1) Emulsifier: alkylarylpolyglycol ether
(§2) To produce a suitable preparation of active compound, 1 part by weight of active compound is mixed with the stated amount of solvents and is diluted with water, containing an emulsifier concentration of 1000 ppm, to the desired concentration. Further test concentrations are prepared by dilution with emulsifier containing water.
Maize (Zea mays) leaf sections are sprayed with a preparation of the active ingredient of the desired concentration. Once dry, the leaf sections are infested with fall armyworm larvae (Spodoptera frugiperda).
After 7 days mortality in % is determined. 100% means all caterpillars have been killed and 0% means none of the caterpillars have been killed.

In test [3] the test system is Ctenocephalides felis (adult cat fleas). Kind of test: Ctenocephalides felis in-vitro contact test, adult cat flea. The settings on record: after 48 hours. The procedure: Ctenocephalides felis—In-Vitro Contact Tests Adult Cat Flea
(§3) 9 mg compound is solved in 1 mL acetone and diluted with acetone to the desired concentration. 250 μL of the test solution is filled in 25 mL glass test tubes and homogeneously distributed on the inner walls by rotation and tilting on a shaking device (2 h at 30 rpm). With a compound concentration of 900 ppm, an inner surface of 44.7 cm^2 and a homogeneous distribution, a dose of 5 μg/cm^2 is achieved.
After the solvent has evaporated, each test tube is filled with 5-10 adult cat fleas (Ctenocephalides felis), closed with a perforated lid and incubated in a lying position at room temperature and relative humidity. After 48 hours efficacy is determined. The fleas are patted on the ground of the tubes and are incubated on a heating plate at 45-50° C. for at most 5 minutes. Immotile or uncoordinated moving fleas, which are not able to escape the heat by climbing upwards, are marked as dead or moribund.
An efficacy of 100% means all fleas are dead or moribund; 0% means no fleas are dead or moribund.

Test [4] deals with Rhipicephalus sanguineus (adult brown dog ticks). Put plainly: Rhipicephalus sanguineus in-vitro contact test, adult brown dog ticks. The settings on record: application rate 1 μg/cm^2 (=100 g/ha); after 48 hours. The procedure:
Rhipicephalus sanguineus—In-Vitro Contact Tests with Adult Brown Dog Ticks
as §3
After the solvent has evaporated, each test tube is filled with 5-10 adult brown dog ticks (Rhipicephalus sanguineus), closed with a perforated lid and incubated in a lying position at room temperature and relative humidity. After 48 hours efficacy is determined. The ticks are patted on the ground of the tubes and are incubated on a heating plate at 45-50° C. for at most 5 minutes. Immotile or uncoordinated moving ticks, which are not able to escape the heat by climbing upwards, are marked as dead or moribund.
An efficacy of 100% means all ticks are dead or moribund; 0% means no ticks are dead or moribund.

Test [5] concerns Diabrotica balteata (banded cucumber beetle larvae). Kind of test: Diabrotica balteata spray test. The settings on record: 168 h, wheat seeds, after 7 days, read-out: efficacy (seedlings grown up like untreated, uninfected control); for pest or weed control at 32 µg/disc, 100 g/ha: application rate 100 g/ha (=32 μg/well). Here is the method:
Diabrotica balteata—Spray Test
(§4) Solvent: 78.0 parts by weight of acetone • • 1.5 parts by weight of dimethylformamide
as §1
(§5) To produce a suitable preparation of active compound, 1 part by weight of active compound is mixed with the stated amount of solvent, and the concentrate is diluted with water, containing an emulsifier concentration of 1000 ppm, to the desired concentration. Further test concentrations are prepared by dilution with emulsifier containing water.
Soaked wheat seeds (Triticum aestivum) are placed in a multiple well plate filled with agar and some water and are incubated for 1 day to germinate (5 seeds per well). The germinated wheat seeds are sprayed with a test solution containing the desired concentration of the active ingredient. Afterwards each unit is infected with 10-20 larvae of the banded cucumber beetle (Diabrotica balteata).
After 7 days efficacy in % is determined. 100% means all the seedlings have grown up like in the untreated, uninfected control; 0% means none of the seedlings have grown.

Test [6] concerns Nezara viridula (southern green stink bug larvae). Kind of test: Nezara viridula spray test. The note with it: 96 h, application rate 500 g/ha, barley plants, after 4 days. Here is the method:
Nezara viridula—Spray Test
as §4, §1, §5
Barley plants (Hordeum vulgare) are sprayed with a test solution containing the desired concentration of the active ingredient and are infested with larvae of the southern green stink bug (Nezara viridula).
After 4 days mortality in % is determined. 100% means all the stink bugs have been killed; 0% means none of the stink bugs have been killed.

The subject of test [7] is Nilaparvata lugens (brown planthopper). Kind of test: Nilaparvata lugens spray test. The settings on record: 96 h, application rate 500 g/ha, rice plants, after 4 days. The procedure:
Nilaparvata lugens—Spray Test
as §4, §1, §2
Rice plants (Oryza sativa) are sprayed with a preparation of the active ingredient of the desired concentration and the plants are infested with the brown planthopper (Nilaparvata lugens).
After 4 days mortality in % is determined. 100% means all planthoppers have been killed and 0% means none of the planthoppers have been killed.

As for `CC(NC(=O)c1cc(C(F)(F)F)cc(C(F)(F)F)c1)c1nccnc1-n1cnc(C#N)n1` (racemic) [Example I-27, (rac)-N-{1-[3-(3-Cyano-1H-1,2,4-triazol-1-yl)pyrazin-2-yl]ethyl}-3,5-bis(trifluoromethyl)benzamide], the “efficacy (larvae dead or moribund)” value in test [1] is reported as 100%.
As a reminder, the mortality is the share of the test organisms that died. A high value points to fewer survivors. On to `CCN(C)C(=O)c1ncn(-c2nccnc2C(C)NC(=O)c2cc(Cl)cc(S(C)(=O)=O)c2)n1` (racemic) [Example I-25, (rac)-1-(3-{1-[3-Chloro-5-(methanesulfonyl)benzamido]ethyl}pyrazin-2-yl)-N-ethyl-N-methyl-1H-1,2,4-triazole-3-carboxamide], for which the mortality at 100 g/ha in test [2] was 100%.
Take `CCN(C)C(=O)c1ncn(-c2nccnc2C(C)NC(=O)c2cc(C(F)(F)F)cc(C(F)(F)F)c2)n1` (racemic) [Example I-21, (rac)-1-(3-{1-[3,5-Bis(trifluoromethyl)benzamido]ethyl}pyrazin-2-yl)-N-ethyl-N-methyl-1H-1,2,4-triazole-3-carboxamide]: the “efficacy (larvae dead or moribund)” value in test [1] came to 100%. Further, the “efficacy (fleas dead or moribund)” value in test [3] (application rate 1 μg/cm^2 (=100 g/ha)) was determined as 80%. The “efficacy (ticks dead or moribund)” value in test [4] is recorded as 80%.
With `CC(NC(=O)c1cc(C(F)(F)F)cc(C(F)(F)F)c1)c1nccnc1-c1cn(C)nn1` (racemic) [Example I-10, (rac)-N-{1-[3-(1-Methyl-1H-1,2,3-triazol-4-yl)pyrazin-2-yl]ethyl}-3,5-bis(trifluoromethyl)benz amide], in test [1], the “efficacy (larvae dead or moribund)” value came to 100%. Also, in test [5], the pest or weed control at 32 µg/disc, 100 g/ha amounted to 100%.
On to `Cc1ncn(-c2nccnc2C(C)NC(=O)c2cc(Cl)cc(S(C)(=O)=O)c2)n1` (racemic) [Example I-4, (rac)-3-Chloro-5-(methanesulfonyl)-N-{1-[3-(3-methyl-1H-1,2,4-triazol-1-yl)pyrazin-2-yl]ethyl}benzamide], for which, in test [5], the pest or weed control at 32 µg/disc, 100 g/ha came to 100%. The compound also came in with a mortality at 500 g/ha in test [6] of 70%.
`CC(NC(=O)c1cc(C(F)(F)F)cc(C(F)(F)F)c1)c1nccnc1-n1cncn1` (racemic) [Example I-5, (rac)-N-(1-[3-(1H-1,2,4-Triazol-1-yl)pyrazin-2-yl]ethyl)-3,5-bis(trifluoromethyl)benzamide]: the pest or weed control at 32 µg/disc, 100 g/ha in test [5] amounted to 100%. The mortality at 500 g/ha in test [7] is 100%. Moreover, the mortality at 20 g/ha in test [2] turned out to be 83%.
With `Cc1ncn(-c2nccnc2C(C)NC(=O)c2cc(C(F)(F)F)cc(C(F)(F)F)c2)n1` (racemic) [Example I-3, (rac)-N-{1-[3-(3-Methyl-1H-1,2,4-triazol-1-yl)pyrazin-2-yl]ethyl}-3,5-bis(trifluoromethyl)benzamide], in test [7], the mortality at 500 g/ha came out at 90%. The mortality at 100 g/ha in test [2] came out at 100%.
For `CC(NC(=O)c1cc(Br)cc(Br)c1)c1nccnc1-n1cncn1` (racemic) [Example I-7, (rac)-3,5-Dibromo-N-{1-[3-(1H-1,2,4-triazol-1-yl)pyrazin-2-yl]ethyl}benzamide], the pest or weed control at 32 µg/disc, 100 g/ha in test [5] is 100%.
With `Cc1ncn(-c2nccnc2C(C)NC(=O)c2cc(Br)cc(Br)c2)n1` (racemic) [Example I-2, 3,5-Dibromo-N-{(rac)-1-[3-(3-methyl-1H-1,2,4-triazol-1-yl)pyrazin-2-yl]ethyl}benzamide], in test [5], the pest or weed control at 32 µg/disc, 100 g/ha turned out to be 100%.
With `Cc1ncn(-c2nccnc2C(C)NC(=O)c2cc(Cl)cc(OC(F)(F)F)c2)n1` (racemic) [Example I-9, (rac)-3-Chloro-N-{1-[3-(3-methyl-1H-1,2,4-triazol-1-yl)pyrazin-2-yl]ethyl}-5-(trifluoromethoxy)benzamide], the pest or weed control at 32 µg/disc, 100 g/ha in test [5] amounted to 100%. The compound also had a mortality at 100 g/ha in test [2] of 100%.
On to `CC(NC(=O)c1cc(Br)cc(Br)c1)c1nccnc1-c1cn(C)nn1` (racemic) [Example I-15, (rac)-3,5-Dibromo-N-{1-[3-(1-methyl-1H-1,2,3-triazol-4-yl)pyrazin-2-yl]ethyl}benzamide], for which the pest or weed control at 32 µg/disc, 100 g/ha in test [5] was 100%.
As to `CC(NC(=O)c1cc(Cl)cc(S(C)(=O)=O)c1)c1nccnc1-n1cncn1` (racemic) [Example I-6, (rac)-3-Chloro-5-(methanesulfonyl)-N-{1-[3-(1H-1,2,4-triazol-1-yl)pyrazin-2-yl]ethyl}benzamide], in test [5], the pest or weed control at 32 µg/disc, 100 g/ha amounted to 100%. Further, the mortality at 500 g/ha in test [6] amounted to 90%; in test [7] it was 100%.
For `CC(NC(=O)c1cc(Cl)cc(OC(F)(F)F)c1)c1nccnc1-c1cn(C)nn1` (racemic) [Example I-11, (rac)-3-Chloro-N-{1-[3-(1-methyl-1H-1,2,3-triazol-4-yl)pyrazin-2-yl]ethyl}-5-(trifluoromethoxy)benzamide], the pest or weed control at 32 µg/disc, 100 g/ha in test [5] is 100%.
As to `CC(NC(=O)c1cc(C(F)(F)F)cc(C(F)(F)F)c1)c1nccnc1-c1cn(-c2ccn(C)n2)nn1` (racemic) [Example I-12, (rac)-N-1-{3-[1-(1-Methyl-1H-pyrazol-3-yl)-1H-1,2,3-triazol-4-yl]pyrazin-2-yl}ethyl]-3,5-bis(trifluoromethyl)benzamide], in test [1], the “efficacy (larvae dead or moribund)” value came to 90%. Further, the mortality at 100 g/ha in test [2] amounted to 100%.
Turning to `CCOC(=O)Cn1cc(-c2nccnc2C(C)NC(=O)c2cc(C(F)(F)F)cc(C(F)(F)F)c2)nn1` (racemic) [Example I-28, (rac)-Ethyl [4-(3-{1-[3,5-bis(trifluoromethyl)benzamido]ethyl}pyrazin-2-yl)-1H-1,2,3-triazol-1-yl]acetate], the “efficacy (larvae dead or moribund)” value in test [1] is listed as 100%. Further, in test [3] (application rate 5 μg/cm^2 (=500 g/ha)), the “efficacy (fleas dead or moribund)” value was 100%. The pest or weed control at 160 µg/disc, 500 g/ha in test [5] (application rate 500 g/ha (=160 μg/well)) turned out to be 100%.
